Measured values reported in patent US20240108634A1, “COMPOSITIONS AND METHODS FOR INHIBITING YAP” (The United States Government as represented by the …, priority 2021, published 2024).

Assays:
LN229 and GBM39 cells = experiment: Matrigel invasion assay; format: cell-based, human; settings: Matrigel-coated membranes
Text: Cells were layered in soft agar to evaluate anchorage-independent growth in the presence of the indicated concentrations of inhibitor and colonies counted following 14 days of growth. Representative crystal violet stained images are shown below. Data represent mean+S.D. of three independent experiments. […] Cells were placed in Boyden chambers and allowed to migrate towards BSA (white bars), vitronectin (light yellow bars), or fibronectin (dark yellow bars) (*, P<0.05; n=3). […] Representative crystal violet stained images are shown (200×). Data represent mean+S.D. of three independent experiments. […] Graphical data shown below represent mean+S.D. (late apoptosis; annexin V-positive, PI-positive) of three independent experiments.
Cell proliferation, clonogenic, migration, invasion and apoptosis assays. Cell proliferation was determined via Cell Titer-Glo® luminescent cell assays (Promega). Clonogenic assays were done by plating a total of 1,000 cells per well in 24-well plates in a total volume of 400 μL using a two-layered soft agar system as previously described (Masri J, et al. (2007) Cancer Res 67: 11712-11720). Cell migration assays were conducted using precoated modified Boyden chambers as previously described (Benavides-Serrato A, et al. (2017) PLoS One 12: e0176599). […]

T98G cells = experiment: Cell Titer-Glo sensitivity of T98G cells with YAP1 knockdown or overexpression; format: cell-based, human; settings: 72 h
Text: Nuclear and cytoplasmic fractions were immunoblotted for YAP, HSP90 and lamin B2. FIG. 4B show quantification of nuclear YAP expression levels from a as determined by densitometric analyses. Relative nuclear YAP1 expression in U87 cells was arbitrarily assigned a value of 1. Nuclear YAP expression in the cell lines is shown as mean+S.D., n=3. […] Relative nuclear YAP expression was obtained from FIG. 4B above. […] Data represent mean±S.D. of three independent experiments (*, P<0.05).
Cell proliferation, clonogenic, migration, invasion and apoptosis assays. Cell proliferation was determined via Cell Titer-Glo® luminescent cell assays (Promega). Clonogenic assays were done by plating a total of 1,000 cells per well in 24-well plates in a total volume of 400 μL using a two-layered soft agar system as previously described (Masri J, et al. (2007) Cancer Res 67: 11712-11720). […]
Increased YAP expression directly correlates with NSC682769 sensitivity in GBM cells. […] To examine whether differences in YAP expression may alter sensitivity to NSC682769, the relative expression of nuclear versus cytoplasmic YAP was determined in a panel of GBM lines (FIG. 4A). […] Cell viability was then determined using ATP-release assays on these lines over a wide range of NSC682769 concentrations and IC50s calculated (FIG. 4C). […]

COc1ccc(-c2cc(-c3ccccc3)nc3c2CC(=O)Nc2ccccc2-3)cc1OC [NSC682769]
Cell invasiveness (LN229 and GBM39 cells): reduced the number of cells able to traverse Matrigel-coated membranes | Sensitivity versus parental T98G line (T98G cells; T98G with YAP1 knocked down (shRNA)): relatively resistant | Sensitivity versus parental T98G line (T98G cells; T98G with YAP1 overexpressed): significantly more sensitive
